The source made the active and inactive calls.
Experiments:
[1] = target: T1, Sentrin-specific protease 8 (Homo sapiens, UniProt Q96LD8); test: SENP8 protease inhibitors, SAR follow-up, biochemical, luminescence (AID 504501); format: functional
T1 sequence (Q96LD8 whole entry): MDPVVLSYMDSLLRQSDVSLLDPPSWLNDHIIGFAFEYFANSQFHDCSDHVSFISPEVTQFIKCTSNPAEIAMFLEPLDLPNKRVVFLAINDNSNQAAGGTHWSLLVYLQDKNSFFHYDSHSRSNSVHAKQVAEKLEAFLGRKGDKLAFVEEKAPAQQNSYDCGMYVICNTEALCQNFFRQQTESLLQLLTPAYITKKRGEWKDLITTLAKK

[2] = target: T2, Caspase-3 (Homo sapiens, UniProt P42574); test: SAR Analysis of small molecule inhibitors of Sentrin-specific proteases (SENPs) using a Caspase-3 Selectivity assay. [Related pubchem assays (depositor defined):AID2540, AID2599, AID434973, AID489001]; format: functional
T2 sequence (P42574 whole entry): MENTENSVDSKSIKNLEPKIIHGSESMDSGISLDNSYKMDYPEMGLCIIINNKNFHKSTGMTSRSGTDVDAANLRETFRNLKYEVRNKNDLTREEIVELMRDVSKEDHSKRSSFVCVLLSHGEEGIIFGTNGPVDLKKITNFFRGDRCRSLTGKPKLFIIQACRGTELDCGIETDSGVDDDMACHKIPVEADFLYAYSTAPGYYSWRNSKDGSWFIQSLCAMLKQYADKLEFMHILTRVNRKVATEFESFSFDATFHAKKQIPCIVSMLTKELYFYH

[3] = target: T3, Sentrin-specific protease 6 (Homo sapiens, UniProt Q9GZR1); test: SAR Analysis of small molecule inhibitors of Sentrin-specific protease 6 (SENP6) using a Luminescent assay. [Related pubchem assays (depositor defined):AID2582, AID2599]; format: functional
T3 sequence (Q9GZR1 whole entry): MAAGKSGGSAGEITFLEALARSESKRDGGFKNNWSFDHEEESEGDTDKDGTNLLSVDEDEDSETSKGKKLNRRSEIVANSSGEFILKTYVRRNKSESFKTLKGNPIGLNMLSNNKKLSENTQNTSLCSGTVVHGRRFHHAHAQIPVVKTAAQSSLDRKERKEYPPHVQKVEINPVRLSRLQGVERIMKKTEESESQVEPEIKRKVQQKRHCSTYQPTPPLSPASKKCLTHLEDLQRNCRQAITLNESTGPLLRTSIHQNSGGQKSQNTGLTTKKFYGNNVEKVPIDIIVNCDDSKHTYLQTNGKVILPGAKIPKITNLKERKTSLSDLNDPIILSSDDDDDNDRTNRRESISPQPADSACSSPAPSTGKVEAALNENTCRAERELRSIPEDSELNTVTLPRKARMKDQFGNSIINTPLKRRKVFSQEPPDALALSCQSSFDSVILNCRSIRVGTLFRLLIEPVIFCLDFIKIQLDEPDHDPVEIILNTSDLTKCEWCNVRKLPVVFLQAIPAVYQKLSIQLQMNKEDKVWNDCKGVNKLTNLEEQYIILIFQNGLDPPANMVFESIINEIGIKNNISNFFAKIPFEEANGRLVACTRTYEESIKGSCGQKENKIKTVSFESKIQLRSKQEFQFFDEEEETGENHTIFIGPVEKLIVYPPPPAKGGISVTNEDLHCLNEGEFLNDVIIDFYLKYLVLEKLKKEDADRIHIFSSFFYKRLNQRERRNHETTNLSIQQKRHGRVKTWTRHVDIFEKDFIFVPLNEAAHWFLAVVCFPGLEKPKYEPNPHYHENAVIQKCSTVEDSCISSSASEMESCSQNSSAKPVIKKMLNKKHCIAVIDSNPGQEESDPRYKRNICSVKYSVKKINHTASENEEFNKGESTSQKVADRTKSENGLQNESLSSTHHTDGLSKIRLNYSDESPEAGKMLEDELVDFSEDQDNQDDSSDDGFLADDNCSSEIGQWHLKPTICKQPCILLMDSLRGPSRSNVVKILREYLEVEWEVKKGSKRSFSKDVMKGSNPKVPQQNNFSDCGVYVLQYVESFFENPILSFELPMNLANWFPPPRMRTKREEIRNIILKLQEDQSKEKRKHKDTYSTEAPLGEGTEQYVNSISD

[4] = target: T4, Sentrin-specific protease 7 (Homo sapiens, UniProt Q9BQF6); test: SENP7 protease inhibitors, SAR follow-up, biochemical, luminescence (AID 504497); format: functional
T4 sequence (Q9BQF6 whole entry): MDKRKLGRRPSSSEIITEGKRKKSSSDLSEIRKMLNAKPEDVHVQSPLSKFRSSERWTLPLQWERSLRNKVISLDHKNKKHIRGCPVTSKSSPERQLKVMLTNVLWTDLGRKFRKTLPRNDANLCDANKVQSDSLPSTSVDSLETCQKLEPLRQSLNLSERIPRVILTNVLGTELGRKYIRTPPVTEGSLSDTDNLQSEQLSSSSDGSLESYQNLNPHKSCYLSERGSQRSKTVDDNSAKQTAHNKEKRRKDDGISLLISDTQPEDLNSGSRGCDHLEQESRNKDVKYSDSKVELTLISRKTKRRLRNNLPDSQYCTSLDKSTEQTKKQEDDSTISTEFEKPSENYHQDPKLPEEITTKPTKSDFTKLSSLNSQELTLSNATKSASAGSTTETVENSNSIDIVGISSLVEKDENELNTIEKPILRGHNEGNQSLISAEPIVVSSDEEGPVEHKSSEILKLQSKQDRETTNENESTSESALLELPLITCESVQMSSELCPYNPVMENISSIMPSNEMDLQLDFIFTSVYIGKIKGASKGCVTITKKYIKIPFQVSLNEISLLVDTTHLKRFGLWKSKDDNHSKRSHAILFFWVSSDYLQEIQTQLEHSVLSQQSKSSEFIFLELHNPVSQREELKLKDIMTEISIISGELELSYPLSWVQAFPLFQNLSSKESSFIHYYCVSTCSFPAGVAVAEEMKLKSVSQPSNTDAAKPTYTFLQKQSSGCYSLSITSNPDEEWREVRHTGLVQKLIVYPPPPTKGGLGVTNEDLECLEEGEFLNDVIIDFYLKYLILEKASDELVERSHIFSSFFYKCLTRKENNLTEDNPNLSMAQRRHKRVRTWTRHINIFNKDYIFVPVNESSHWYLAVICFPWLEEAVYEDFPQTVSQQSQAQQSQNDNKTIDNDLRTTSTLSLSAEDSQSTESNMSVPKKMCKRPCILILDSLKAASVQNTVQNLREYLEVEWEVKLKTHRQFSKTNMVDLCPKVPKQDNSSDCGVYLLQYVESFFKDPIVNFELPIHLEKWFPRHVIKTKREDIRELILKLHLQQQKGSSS

[5] = test system: Streptococcus sp. 'group A'; test: growth inhibition of control SK(-) GAS strain, dose response, counter-screen for streptokinase expression inhibitor project, luminescence, kanamycin, BacTiterGlo, confirmation (AID 1900); format: functional, organism-based
[6] = test system: BJ; test: cytotoxicity toward BJ-TERT fibroblasts, dose response, cell-based, RAS-independent, luminescence (AID 1933); format: functional; details: Homo sapiens
[7] = target: T5, Streptokinase A (Streptococcus pyogenes serotype M1, UniProt P10520); test: S. pyogenes streptokinase expression inhibitors, potency, dose response, plasminogen activation absorbance, OD405 (AID 1914); format: functional, Streptococcus pyogenes M1 GAS;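 note: secreted streptokinase activity via plasminogen activation per viability signal from cell pellet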
T5 sequence (P10520 whole entry): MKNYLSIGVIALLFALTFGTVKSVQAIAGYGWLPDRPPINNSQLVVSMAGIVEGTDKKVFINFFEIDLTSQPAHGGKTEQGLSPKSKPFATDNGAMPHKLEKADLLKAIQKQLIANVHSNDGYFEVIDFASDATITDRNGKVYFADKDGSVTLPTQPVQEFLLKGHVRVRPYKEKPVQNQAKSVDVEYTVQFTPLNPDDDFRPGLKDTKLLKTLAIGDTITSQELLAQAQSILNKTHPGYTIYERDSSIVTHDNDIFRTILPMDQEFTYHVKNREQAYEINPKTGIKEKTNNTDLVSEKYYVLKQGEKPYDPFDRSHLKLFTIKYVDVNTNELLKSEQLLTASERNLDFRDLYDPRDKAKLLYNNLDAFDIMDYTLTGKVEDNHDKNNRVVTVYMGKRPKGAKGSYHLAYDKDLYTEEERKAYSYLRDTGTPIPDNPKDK

[8] = test system: BJ; test: cells; format: functional, cell-based; details: Homo sapiens
[9] = microbe, parasite or virus in culture; format: functional; details: Mycobacterium tuberculosis
[10] = test system: BJ; test: cytotoxicity toward BJ-TERT-LT-ST fibroblasts, dose response, cell-based, RAS-independent, luminescence (AID 1935); format: functional; details: Homo sapiens;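 note: BJ fibroblasts immortalized with TERT plus LT and ST oncogenes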
[11] = cytotoxicity toward DRD oncogenic fibroblasts, dose response, cell-based, non-viral oncogenic, luminescence (AID 1934); format: functional; details: Homo sapiens
[12] = test system: Streptococcus; test: Group A Streptococcus viability loss, dose response, counter-screen for streptokinase expression inhibitor project, luminescence, BacTiterGlo (AID 1915); format: functional, organism-based;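 note: potency for reduction of bacterial viability or growth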
[13] = target: T6, Heat shock factor protein 1 (Mus musculus, UniProt P38532); test: HSF1 potentiators in luciferase reporter cells, confirmation, cell-based, NIH3T3, luminescence, dose retest (AID 435004); format: functional;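 note: stress induced by proteasome inhibitor MG132 added 30 min after compound; luciferase reporter driven by HSF1 response element in NIH3T3 cells; actives raise luminescence as potentiators of the MG132 stress response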
T6 sequence (P38532 whole entry): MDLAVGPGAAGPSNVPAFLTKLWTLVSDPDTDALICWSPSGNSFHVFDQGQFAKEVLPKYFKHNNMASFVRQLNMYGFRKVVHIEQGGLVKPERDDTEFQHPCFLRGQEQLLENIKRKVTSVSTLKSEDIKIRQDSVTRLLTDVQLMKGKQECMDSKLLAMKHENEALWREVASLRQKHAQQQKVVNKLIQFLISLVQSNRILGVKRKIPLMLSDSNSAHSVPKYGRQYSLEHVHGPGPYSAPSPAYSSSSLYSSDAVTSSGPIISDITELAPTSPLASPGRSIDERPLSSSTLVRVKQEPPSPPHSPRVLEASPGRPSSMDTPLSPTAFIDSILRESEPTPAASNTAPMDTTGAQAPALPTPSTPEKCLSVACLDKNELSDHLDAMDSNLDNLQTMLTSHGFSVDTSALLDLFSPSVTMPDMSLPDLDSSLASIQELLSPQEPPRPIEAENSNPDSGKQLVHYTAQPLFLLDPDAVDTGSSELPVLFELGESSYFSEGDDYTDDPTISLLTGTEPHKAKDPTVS

[14] = target: Heat shock protein HSP 90-alpha (Homo sapiens, UniProt P07900); format: functional, organism-based
[15] = test system: INS1; test: beta cell apoptosis inhibitors, cytokine rescue, dose response, luminescence, retest (AID 449756); format: functional, cell-based; details: Rattus norvegicus;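 note: cell death triggered by IL-1 beta plus TNF-alpha plus IFN-gamma mixture; protective hits raise ATP signal compared with cytokine alone wells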
[16] = A Cell Based Secondary Assay to Explore Cytotoxicity in THP-1 Cells of Compounds that Modulate Mycobacterium tuberculosis in Media Containing Glycerol versus Media without Glycerol (2).; format: functional
[17] = Vero cell cytotoxicity, cytotoxicity control for M. tuberculosis inhibitor project, purified and synthesized samples, set 3 (AID 504684); format: functional
[18] = THP-1 cell cytotoxicity, cytotoxicity control, set 4 (AID 504911); format: functional; details: Mycobacterium tuberculosis
[19] = A Cell Based Secondary Assay to Explore Cytotoxicity in HepG2 Cells of Compounds that Modulate Mycobacterium tuberculosis in Media Containing Glycerol versus Media without Glycerol (2).; format: functional
[20] = THP-1 cell cytotoxicity, dose response, cytotoxicity control, set 3 (AID 504852); format: functional; details: Mycobacterium tuberculosis

SMILES	IC50 [1]	IC50 [2]	IC50 [3]	IC50 [4]	EC50 [5]	EC50 [6]	EC50 [7]	EC50 [8]	CC50 [9]	EC50 [10]	EC50 [11]	EC50 [12]	EC50 [13]	AC50 [14]	AC50 [15]	CC50 [16]	CC50 [17]	CC50 [18]	CC50 [19]	CC50 [20]
NS(=O)(=O)c1ccc(CCNC(=O)c2sc3cc(Cl)ccc3c2Cl)cc1	> 99 µM (inactive)	> 99 µM (inactive)	> 99 µM (inactive)	> 99 µM (inactive)																
Cc1cccc(/C=C/C(=O)c2ccc([N+](=O)[O-])o2)c1					3.96 µM (active)	> 150 µM (not active)	9.69 µM (active)	> 150 µM (inconclusive)	18.8 µM (active)	> 150 µM (inconclusive)	2.23 µM (active)	14.4 µM (active)	3.43 µM (inconclusive)	2.39 µM (active)	3.29 µM (active)	12.2 µM (active)	12.4 µM (active)	> 100 µM (active)	8.39 µM (active)	> 100 µM (active)

Source: ChEMBL document CHEMBL1201862, “PubChem BioAssay data set” (2004)
